“Also recorded” adds a separate entry of the source.
Legend:
[1] = cited from earlier work; for psychoactivity relative to THC: compared with Δ9-THC
[2] = cited from earlier work
[3] = Room temperature storage of marijuana biomass, Δ9-THC content; assay type: physicochemical; details: 8-month period, room temperature storage at RTI
Method: Under DEA Schedule I license (No. RC0288058), two 250-gram shipments of high potency, bulk marijuana biomass were requested from the National Institute of Drug Abuse (NIDA). Both shipments were provided by the Research Triangle Institute (RTI) International, Research Triangle Park, N.C. under contract with NIDA. The first batch (RTI Batch No. 8976-1001-26/University of Mississippi Batch No. 1182/1186) was received and logged in at Aphios on Dec. 17, 2002. This batch was measured by the University of Mississippi's Thad Cochran National Center for the Natural Products Research to have a Δ9-THC content of 8.98%. Table 1 lists the concentration of other cannabinoids per the provided Certificate of Analysis (Dec. 2, 2002). Table 1 also lists HPLC measurements of heat-treated biomass made by Aphios' chemists; the methods and data are detailed below. The biomass was stored in a locked safe at room temperature when not in use. All usage was recorded on a log sheet that was also stored in the same safe.
The second shipment, also from the same batch of high potency marijuana from the U. of Mississippi, was received and logged in at Aphios on Aug. 14, 2003. The second shipment was measured by RTI on Jul. 29, 2003 to have a Δ9-THC content of 6.12% by GLC analysis. […]

For `CCCCCc1cc(O)c2c(c1)OC(C)(C)[C@@H]1CCC(CO)=C[C@@H]21` [11-OH-A-9-THC], the “psychoactivity relative to THC” value [1] is given as “three times more psychoactive”.

In the case of `C=C(C)[C@@H]1CCC(C)=C[C@H]1c1c(O)cc(CCCCC)cc1O` [CBD, cannabidiol], the psychoactivity ([1]; in vivo) is given as “not psychoactive; also recorded: not psychotomimetic in pure form”.

For `CCCCCc1cc(O)c2c(c1)OC(C)(C)[C@@H]1CCC(C)=C[C@@H]21` [Dronabinol], the “bioavailability (reaches systemic circulation)” value ([2]; oral Dronabinol) is given as 6-20%, the “time to peak plasma concentrations after dosing” value ([2]; oral Dronabinol) is given as 2 to 4 h and the bioavailability ([2]; oral intake of synthetic Δ9-THC capsules) is given as 6-20%.

In the case of `CCCCCc1cc(O)c2c(c1)OC(C)(C)[C@@H]1CCC(C)=C[C@@H]21` [Δ9-THC, Δ9-tetrahydrocannabinol], the “decrease of Δ9-THC content of the marijuana biomass” value [3] is reported as “about 32%”.

For `CCCCCc1cc(O)c2c(c1)OC(C)(C)[C@@H]1CC=C(C)C[C@@H]21` [Δ-8-THC, Δ8-tetrahydrocannabinol], the “psychoactivity relative to THC” value [1] is given as “slightly less active”.
